Counter-ions that a name gives are not always drawn. Like-named read-outs stand apart in the source and are kept apart here.
Columns and labels:
[1] = Example 13 trial: total and free bupivacaine plasma pharmacokinetics; conditions: human, in vivo
Procedure: Additionally, alpha 1 acid glycoprotein (AAG) plasma concentrations were measured in these two groups for correlation with free bupivacaine concentrations.
Using non-compartmental methods the following PK parameters were calculated from the plasma concentrations of each compound: area under the plasma concentration vs. time curve until the last measured concentration (AUCt), area under the plasma concentration vs. time curve extrapolated until infinity (AUCinf), the maximum concentration (Cmax), the time of its occurrence (tmax) and the apparent terminal elimination half-life (t1/2). […] The average […] of bupivacaine was approximately […]; free bupivacaine plasma concentrations generally paralleled those of total bupivacaine. There was a large interindividual variability of Cmax of both total and free bupivacaine. […] Note: Table 13.5 presents Geometric mean, ±68th percentile for Cmax rather than absolute min, max.

[2] = test system: subjects undergoing elective outpatient laparoscopic cholecystectomy; assay: Example 16 trial: safety; format: in vivo
Source text: The trial included: 1) a randomized, parallel-group, double-blind, placebo-controlled study (Part 1) and a randomized, parallel-group, double-blind, bupivacaine HCl active-controlled study (Part 2). The trial evaluated the efficacy and safety of Formulation A (bupivacaine, benzyl alcohol, sucrose acetate isobutyrate) as a delivery system in subjects undergoing elective outpatient laparoscopic cholecystectomy.
There were no fatalities in this trial. […]

[3] = test system: patients undergoing laparotomy, laparoscopic cholecystectomy or laparoscopically-assisted colectomy; assay: Example 17 phase 3 trial: pain intensity and opioid use in general surgical procedures; format: in vivo, human; conditions: for Total Morphine-equivalent Opioid Medication Use, MEDD 0-72 hours, Median (Q1, Q3) / Repeated Measures Pain Intensity on Movement, All Timepoints 0-72 hr, LS Mean (SE): ITT; for Pain Intensity on Movement AUC 0-24 hours, LS Mean (SE) / Pain Intensity on Movement AUC 0-48 hours, LS Mean (SE) / Pain Intensity on Movement AUC 0-72 hours, LS Mean (SE) / Pain Intensity on Movement AUC 24-48 hours, LS Mean (SE) / Pain Intensity on Movement AUC 48-72 hours, LS Mean (SE): Log Pad and Opioid Pain Scores; for Repeated Measures Pain Intensity on Movement, All Timepoints 0-72 hr, LS Mean (SE): LogPad Scores Only
[4] = Example 17 trial: plasma total bupivacaine pharmacokinetics; format: in vivo; conditions: human
Procedure: Plasma PK samples were analyzed for determination of total bupivacaine concentration only and none of the samples were analyzed for determination of free drug concentration.

[5] = test system: patients undergoing general surgical procedures; assay: Example 17 trial: safety including Holter monitoring; format: in vivo, human; conditions: Safety Population
Source text: Patient safety was carefully monitored throughout the trial with traditional assessments of AEs, vital signs, routine laboratory testing, and Holter monitoring (i.e., continuous recording of electrocardiogram) for 3 days after dosing. Special attention was given to cardiovascular and neurological AE, as bupivacaine toxic effects are manifest in those two body systems. In addition, special assessments were done to monitor surgical wound condition and healing over the 30 days of the trial.

[6] = test system: patients undergoing elective arthroscopic shoulder surgery; assay: Example 13 trial: pain intensity and opioid rescue after arthroscopic shoulder surgery; format: in vivo, human
Procedure: Patients were screened 1 to 14 days before surgery at which time informed consent was obtained. Surgery was performed and the trial drug administered on Day 0. The trial was planned to be divided into two sequential cohorts, each with three treatment groups (a, b and c).
All patients received paracetamol (4 grams/day; 2 grams/day for body weight <66 kg for the first 72 hours) as background treatment. In case sufficient pain relief was not obtained, patients were allowed rescue medication in the form of morphine administered intravenously or orally, which consisted of oral morphine 10 mg at 1-hour intervals or, if unable to tolerate orally intake, intravenous (IV) morphine […] at 5-minute intervals. After 72 hours, subjects were allowed paracetamol and oral morphine on an as-needed basis. Patients recorded pain intensity as well as rescue medication in an electronic diary (eDiary).
Primary: The study had two primary endpoints. […] For the primary endpoints to be met, […] of PI on movement compared to placebo as well as superiority in total use of opioid analgesia needed to be shown. PI “on movement” reported on the NRS scale was summarized by treatment group and time, using descriptive statistics for continuous variables.
Time to first opioid rescue medication usage was defined as the duration between time of trial drug administration and the time of first opioid use

[7] = Cohort 2 (Laparoscopic Cholecystectomy)
[8] = LOCF, ITT population, hours post-surgery

CCCCN1CCCCC1C(=O)Nc1c(C)cccc1C (stereo not shown) [bupivacaine HCl, bupivacaine hydrochloride]
Tmax [1]: 1.03 h | t1/2, mean [1]: 6.65 h | tmax median [1]: 1.03 h | half-life ([1]; t1/2, mean): 5.93 h | Fatal TEAE, number of subjects ([2]; Part 2 (N = 148 per group)): 0 | Fatal TEAE, percent of subjects ([2]; Part 2 (N = 148 per group)): (0.0%) | At Least One LogPad-Solicited TEAE, number of subjects ([2]; human, in vivo): 132 | At Least One LogPad-Solicited TEAE, percent of subjects ([2]; human, in vivo): (89.2%) | At Least One Serious TEAE, number of subjects ([2]; human, in vivo): 3 | At Least One Serious TEAE, percent of subjects ([2]; human, in vivo): (2.0%) | At Least One Serious and Related TEAE, number of subjects ([2]; human, in vivo): 0 | At Least One Serious and Related TEAE, percent of subjects ([2]; human, in vivo): (0.0%) | At Least One Severe and Related TEAE, number of subjects ([2]; human, in vivo): 0 | At Least One Severe and Related TEAE, percent of subjects ([2]; human, in vivo): (0.0%) | At Least One Spontaneously-reported TEAE, number of subjects ([2]; human, in vivo): 138 | At Least One Spontaneously-reported TEAE, percent of subjects ([2]; human, in vivo): (93.2%) | At Least One TEAE Leading to Study Discontinuation, number of subjects ([2]; human, in vivo): 1 | At Least One TEAE Leading to Study Discontinuation, percent of subjects ([2]; human, in vivo): (0.7%) | At Least One TEAE, number of subjects ([2]; human, in vivo): 146 | At Least One TEAE, percent of subjects ([2]; human, in vivo): (98.6%) | TEAE Maximum Relationship to Study Drug: Not Related, number of subjects ([2]; human, in vivo): 42 | TEAE Maximum Relationship to Study Drug: Not Related, percent of subjects ([2]; human, in vivo): (28.4%) | TEAE Maximum Relationship to Study Drug: Related, number of subjects ([2]; human, in vivo): 104 | TEAE Maximum Relationship to Study Drug: Related, percent of subjects ([2]; human, in vivo): (70.3%) | TEAE Maximum Severity: Mild, number of subjects ([2]; human, in vivo): 92 | TEAE Maximum Severity: Mild, percent of subjects ([2]; human, in vivo): (62.2%) | TEAE Maximum Severity: Moderate, number of subjects ([2]; human, in vivo): 49 | TEAE Maximum Severity: Moderate, percent of subjects ([2]; human, in vivo): (33.1%) | TEAE Maximum Severity: Severe, number of subjects ([2]; human, in vivo): 5 | TEAE Maximum Severity: Severe, percent of subjects ([2]; human, in vivo): (3.4%) | treated subjects with treatment-emergent serious adverse events ([2]; human, in vivo): 3 subjects | Total Morphine-equivalent Opioid Medication Use, MEDD 0-72 hours, Median (Q1, Q3) ([3]; Cohort 1 (Laparotomy)): 63.0 (34.0, 152.0) mg | Pain Intensity on Movement AUC 0-24 hours, LS Mean (SE) ([3]; Cohort 1 (Laparotomy)): 6.3 (0.48) | Pain Intensity on Movement AUC 0-48 hours, LS Mean (SE) ([3]; Cohort 1 (Laparotomy)): 6.0 (0.49) | Pain Intensity on Movement AUC 0-72 hours, LS Mean (SE) ([3]; Cohort 1 (Laparotomy)): 5.8 (0.51) | Pain Intensity on Movement AUC 24-48 hours, LS Mean (SE) ([3]; Cohort 1 (Laparotomy)): 5.7 (0.56) | Pain Intensity on Movement AUC 48-72 hours, LS Mean (SE) ([3]; Cohort 1 (Laparotomy)): 5.3 (0.60) | Repeated Measures Pain Intensity on Movement, All Timepoints 0-72 hr, LS Mean (SE) ([3]; Cohort 1 (Laparotomy)): 5.9 (0.35) | Total Morphine-equivalent Opioid Medication Use, MEDD 0-72 hours, Median (Q1, Q3) [3, 7]: 22.5 (12.5, 34.5) mg | Pain Intensity on Movement AUC 0-24 hours, LS Mean (SE) [3, 7]: 4.8 (0.47) | Pain Intensity on Movement AUC 0-48 hours, LS Mean (SE) [3, 7]: 4.4 (0.45) | Pain Intensity on Movement AUC 0-72 hours, LS Mean (SE) [3, 7]: 3.9 (0.45) | Pain Intensity on Movement AUC 24-48 hours, LS Mean (SE) [3, 7]: 4.0 (0.22) | Pain Intensity on Movement AUC 48-72 hours, LS Mean (SE) [3, 7]: 2.8 (0.52) | Repeated Measures Pain Intensity on Movement, All Timepoints 0-72 hr, LS Mean (SE) [3, 7]: 3.6 (0.32) | Cmax ([4]; Cohort 1): 251 ng/mL | AUC(0-t) ([4]; Cohort 1, read-out: AUC(0-72), mean): 8460 ng·h/mL | AUC(0-t) ([4]; Cohort 1, read-out: AUC(0-last), mean): 7780 ng·h/mL | Tmax ([4]; Cohort 1, read-out: Tmax, median): 16 h | Cmax ([4]; Cohort 2): 371 ng/mL | AUC(0-t) ([4]; Cohort 2, read-out: AUC(0-72), mean): 6770 ng·h/mL | AUC(0-t) ([4]; Cohort 2, read-out: AUC(0-last), mean): 6620 ng·h/mL | Tmax ([4]; Cohort 2, read-out: Tmax, median): 1 h | At Least One Cardiovascular TEAE ([5]; Cohort 1): 7 (39%) | At Least One Neurological TEAE ([5]; Cohort 1): 4 (22%) | At Least One Non-Opioid TEAE ([5]; Cohort 1): 17 (94%) | At Least One Serious TEAE ([5]; Cohort 1): 4 (22%) | At Least One Serious and Related TEAE ([5]; Cohort 1): 0 | At Least One Severe and Related TEAE ([5]; Cohort 1): 0 | At Least One TEAE ([5]; Cohort 1): 17 (94%) | At Least One TEAE Leading to Study Discontinuation ([5]; Cohort 1): 0 | At Least One Wound Infection REAE ([5]; Cohort 1): 2 (11%) | Deaths ([5]; Cohort 1): 0 | TEAE Maximum Relationship to Study Drug: Not Related ([5]; Cohort 1): 13 (72%) | TEAE Maximum Relationship to Study Drug: Related ([5]; Cohort 1): 4 (22%) | TEAE Maximum Severity: Mild ([5]; Cohort 1): 2 (11%) | TEAE Maximum Severity: Moderate ([5]; Cohort 1): 11 (61%) | TEAE Maximum Severity: Severe ([5]; Cohort 1): 4 (22%) | At Least One Cardiovascular TEAE ([5]; Cohort 2): 2 (10%) | At Least One Neurological TEAE ([5]; Cohort 2): 10 (50%) | At Least One Non-Opioid TEAE ([5]; Cohort 2): 19 (95%) | At Least One Serious TEAE ([5]; Cohort 2): 1 (5%) | At Least One Serious and Related TEAE ([5]; Cohort 2): 0 | At Least One Severe and Related TEAE ([5]; Cohort 2): 1 (5%) | At Least One TEAE ([5]; Cohort 2): 20 (100%) | At Least One TEAE Leading to Study Discontinuation ([5]; Cohort 2): 1 (5%) | At Least One Wound Infection REAE ([5]; Cohort 2): 1 (5%) | Deaths ([5]; Cohort 2): 0 | TEAE Maximum Relationship to Study Drug: Not Related ([5]; Cohort 2): 10 (50%) | TEAE Maximum Relationship to Study Drug: Related ([5]; Cohort 2): 10 (50%) | TEAE Maximum Severity: Mild ([5]; Cohort 2): 2 (10%) | TEAE Maximum Severity: Moderate ([5]; Cohort 2): 13 (65%) | TEAE Maximum Severity: Severe ([5]; Cohort 2): 5 (25%) | Total IV morphine equivalent dose of opioid rescue medication, Median ([6]; 0-72 hours after surgery, ITT population): 8.0 mg | median cumulative IV morphine-equivalent dose of opioids 0 to 72 hours ([6]; Formulation A 5 mL (660 mg) or bupivacaine HCl 20 mL (50 mg) subacromial, ITT): 8.0 mg | Pain intensity at rest normalized AUC 1-72 hours, Mean (SD) ([6]; ITT population): 2.33 (1.76) | Time to first use of opioid rescue medication, Median (95% CI) ([6]; ITT population, Kaplan-Meier estimates): 1.4 (1.0, 4.1) hours | Pain intensity on movement, mean AUC (1-24) [6, 8]: 5.82 | Pain intensity on movement, mean AUC (1-48) [6, 8]: 5.56 | Pain intensity on movement, mean AUC (1-72) [6, 8]: 5.16 | Pain intensity on movement, mean AUC (24-48) [6, 8]: 5.31 | Pain intensity on movement, mean AUC (48-72) [6, 8]: 4.38 | median time to first use of opioid rescue medication ([6]; single subacromial dose, ITT): 1.4 h | percentage of subjects opioid free during 72 hours after surgery ([6]; single subacromial dose, ITT): 27.6%

— US11400019B2, “Sustained release drug delivery systems with reduced impurities and related methods” (DURECT CORPORATION, priority 2020, dated 2022)
